Consider one compound from US20200390793A1, “COMPOSITIONS AND METHODS USING OLEUROPEIN OR CURCUMIN FOR MUSCLE QUALITY AND/OR MUSCLE MASS” (SOCIETE DES PRODUITS NESTLE S.A., priority 2017, published 2020).

This test deals with old rats. The test can be described thus: Dietary polyphenol supplementation for 3 months in 20 months-old rats: muscle mass and muscle fiber area (immunofluorescence staining and microscopy). Format: in vivo. As to conditions: supplemented diet for 3 months, compared with control and rutin groups. An excerpt:
20 months-old rats were fed either a control diet or the same diet supplemented with curcumin or rutin or oleuropein for 3 months. CON=control diet, RUT=control diet with rutin, OLE=control diet with oleuropein and CUR=control diet with curcumin. Old rats are a good model to assess the effect of nutritional intervention in age related muscle decline. With this model, it can be observed as in human a decrease in muscle mass and function and a change in muscle quality with age. The objective of the study was to determine the effects of curcumin, oleuropein and rutin on muscle quality in old rats and the association with muscle mass. 20 months-old rats have been divided in four groups and received a complete diet supplemented with either curcumin (CUR), oleuropein (OLE) or rutin (RUT) for 3 months. A control group (CON) received cellulose instead of polyphenols. Fiber type was analyzed in muscle by immunofluorescence staining and microscopy. Exact Wilcoxon test associated with Hodges-Lehmann to estimate the difference between groups and Kolmogorov-Smirnov test to assess the difference for the distribution have been performed for statistical analysis.

For `COc1cc(/C=C/C(=O)CC(=O)/C=C/c2ccc(O)c(OC)c2)ccc1O` [CUR, curcumin], the “amount of small fibers area (percentage of cells with an area below 700 μm^2, FIG. 3B)” value is reported as “lower”; the “fiber crossectionnal area (FIG. 3A)” value was “higher”; the muscle mass result is “higher”.
